Test results from patent publication US8217055B2, “Pyrido-pyrazine derivatives useful as herbicidal compounds” (Syngenta Crop Protection LLC, priority 2006, dated 2012).

Tests used:
Assay in all cases: Example B2 herbicidal action, post-emergence, pots in glasshouse, evaluated after 13 days (10=total damage to plant; 0=no damage to plant)
Format in all cases: in vivo
Conditions in all cases: rate 1000 g/ha
Amaranthus retroflexus = system: Amaranthus retroflexus
Procedure: (§1) Seeds of a variety of test species were sown in standard soil in pots. After 8 days cultivation (post-emergence) under controlled conditions in a glasshouse (at 24/16° C., day/night; 14 hours light; 65% humidity), the plants were sprayed with an aqueous spray solution derived from the formulation of the technical active ingredient in acetone/water (50:50) solution containing 0.5% Tween 20 (polyoxyethelyene sorbitan monolaurate, CAS RN 9005-64-5). The test plants were then grown in a glasshouse under controlled conditions in a glasshouse (at 24/16° C., day/night; 14 hours light; 65% humidity) and watered twice daily. After 13 days, the test was evaluated (10=total damage to plant; 0=no damage to plant).

Echinochloa crus-galli = system: Echinochloa crus-galli
Procedure: as §1

Ipomea hederaceae = system: Ipomea hederaceae
Procedure: as §1

Setaria faberi = system: Setaria faberi
Procedure: as §1

Solanum nigrum = system: Solanum nigrum
Procedure: as §1

Compound	AMARE damage score (10=total damage to plant; 0=no damage to plant) (Amaranthus retroflexus)	ECHCG damage score (10=total damage to plant; 0=no damage to plant) (Echinochloa crus-galli)	IPOHE damage score (10=total damage to plant; 0=no damage to plant) (Ipomea hederaceae)	SETFA damage score (10=total damage to plant; 0=no damage to plant) (Setaria faberi)	SOLNI damage score (10=total damage to plant; 0=no damage to plant) (Solanum nigrum)
CC(C)C(=O)Oc1c(-c2cc(F)c(Cl)cc2Cl)c(=O)n(CC(F)F)c2nccnc12 [A20]	10	7	7	8	9
CC(C)(C)C(=O)Oc1c(-c2c(F)ccc(F)c2Cl)c(=O)n(CCC(F)=C(F)F)c2nccnc12 [C12]	6	0	1	0	3
CC(C)(C)C(=O)Oc1c(-c2c(F)ccc(F)c2Cl)c(=O)n(CC(F)(F)F)c2nccnc12 [C8, 2,2-dimethyl-propionic acid 7-(2-chloro-3,6-difluoro-phenyl)-5-(2,2,2-trifluoro-ethyl)-6-oxo-5,6-dihydro-pyrido[2,3-b]pyrazin-8-yl ester]	10	1	10	4	10
COc1ccc(OC(F)(F)F)cc1-c1c(OC(=O)C(C)(C)C)c2nccnc2n(CC(F)F)c1=O [A27]	9	7	7	7	9
CC(C)(C)C(=O)Oc1c(-c2cc(Cl)ccc2Cl)c(=O)n(CC(F)F)c2nccnc12 [A42]	10	6	9	7	10
O=c1c(-c2c(F)ccc([N+](=O)[O-])c2Cl)c(O)c2nccnc2n1CC(F)F [B9]	9	8	8	7	9
COc1cccc(-c2c(OC(=O)C(C)(C)C)c3nccnc3n(CC(F)F)c2=O)c1OC [A16]	8	3	7	8	10
CC(C)(C)C(=O)Oc1c(-c2cc(F)c(Cl)cc2Cl)c(=O)n(CC(F)F)c2nccnc12 [A17]	3	6	0	7	5
O=c1c(-c2c(Cl)cccc2C(F)(F)F)c(O)c2nccnc2n1CC(F)F [B13]	10	9	10	9	10
CC(C)(C)C(=O)Oc1c(-c2cc(C(F)(F)F)ccc2C(F)(F)F)c(=O)n(CC(F)F)c2nccnc12 [A43]	10	8	9	9	9
O=c1c(-c2c(F)ccc(Br)c2Cl)c(O)c2nccnc2n1CC(F)F [B6]	10	8	10	8	10
CC(C)(C)C(=O)Oc1c(-c2c(Cl)cc(OC(F)(F)F)cc2Cl)c(=O)n(CC(F)F)c2nccnc12 [A11]	10	9	10	9	10
CC(C)C(=O)Oc1c(-c2ccccc2OC(F)F)c(=O)n(CC(F)F)c2nccnc12 [A26]	10	2	5	2	5
COc1cccc(-c2c(OC(=O)C(C)C)c3nccnc3n(CC(F)F)c2=O)c1OC [A15]	6	8	9	9	10
COc1cc(F)c(F)cc1-c1c(OC(=O)C(C)(C)C)c2nccnc2n(CC(F)F)c1=O [A44]	9	7	6	9	10
CC(C)(C)C(=O)Oc1c(-c2cc(Cl)ccc2C(F)(F)F)c(=O)n(CC(F)F)c2nccnc12 [A37]	6	5	7	7	5
CC(C)(C)C(=O)Oc1c(-c2cc(F)c(F)cc2Cl)c(=O)n(CC(F)F)c2nccnc12 [A33]	10	4	7	7	10
O=C1c2nccnc2N(CCF)C(=O)C1c1c(F)ccc(F)c1Cl (stereo not drawn) [D2]	6	1	5	2	7
CC(C)(C)C(=O)Oc1c(-c2ccccc2OC(F)F)c(=O)n(CC(F)F)c2nccnc12 [A28]	9	1	8	3	10
COc1ccc(Br)cc1-c1c(OC(=O)C(C)(C)C)c2nccnc2n(CC(F)F)c1=O [A38]	10	6	6	8	9
O=c1c(-c2c(F)ccc(Cl)c2Cl)c(O)c2nccnc2n1CC(F)F [B14]	10	6	10	7	10
